Reference: patent publication US20170143753A1, “SOPHOROLIPID ESTER CHAIN LENGTH DEPENDENCE ON THE INHIBITION OF HUMAN PATHOGENS” (Syntehzyme LLC, priority 2011, published 2017)
Values after ≈ are worked out from the molar mass of the structure shown. Like-named read-outs stand apart in the source and are kept apart here.

Columns and labels:
human pathogen bacteria = assay: Bactericidal activity (time-kill study); format: cell-based; settings: roughly 10^7 cfu/mL in PBS pH 7.4; for cells killed: at 2×MIC and 4×MIC, within 1 hour; for time to reach 3 log reduction: time-kill, 2×MIC and 4×MIC
Procedure: Bactericidal activity (time-kill study): an in vitro assay was performed to test the bactericidal effect of each sophorolipid derivatives on human pathogen bacteria viability. […] After 15 min, 45 min, 1 h and 3 h incubation, cells were spread on agar plates, incubated at 37° C. for 18 hours and examined for colonies. An untreated cells vial (i.e. no SL added) was used as the control.
To further investigate if the growth inhibition by sophorolipid derivatives is associated with cell death, i.e. if sophorolipid derivatives are bactericidal or bacteriostatic, time-kill studies were performed. […] Moreover, the killing rate was higher for these sophorolipid ester derivatives than natural di-acetylated lactonic sophorolipid that requires almost 2 hours to reach a 3 log reduction.

B. Subtilis = assay: Minimum inhibitory concentration (MIC), broth microdilution; format: cell-based; settings: for MIC: Bacillus subtilis, read-out: Minimum Inhibitory Concentration (MIC) B. Subtilis; for activity against B. Subtilis (in words): MIC assay, up to 128 μg/mL
Procedure: (§1) Sophorolipid ester derivatives, as well as the diacetate lactonic sophorolipid have inhibitory activity against a range of human pathogenic bacteria, which was confirmed by experiments and observations. Sophorolipid samples were dissolved in pure DMSO to a final concentration of 2.56 mg/mL that was used as a stock solution. Except the first row, the wells of a 96-well microplate were loaded with 100 μL of sterilized PBS buffer. The stock solution (20 μL) and sterilized PBS buffer pH 7.4 (180 μL) was added into the first row of the 96-well microplate and serially diluted (2-fold dilution) from 256 μg/mL to 2 μg/mL using PBS buffer. After serial dilution, 100 μL of fresh bacteria cells (10^6 cfu/mL) suspended in Soy broth (SB) or Mueller Hinton broth (MHB) culture medium were added to each well and the plates were incubated for 16 or 30 hours. Wells with only cells in 5% DMSO in PBS/medium (no SL) and with only 5% DMSO in PBS/medium (no SL and no cells) were used as positive and negative controls, respectively. […] Lactonic SL as well as all SL esters except SL hexyl ester (no activity against all strains) and SL pentyl ester (no activity against B. Subtilis) were active against all three gram-positive bacterial strains tested (B. Cereus, B. Subtilis, Listeria innocua). The unexpected result in Table 2 is that, as the chain length of the sophorolipid ester increased from methyl to ethyl, propyl and butyl, the MIC values for B. Cereus, B. Subtilis and L. Innocua decrease. The pentyl ester has similarly low MIC values as the butyl ester derivative for B. Cereus and L. Innocua.

B. Cereus = assay: as above; format: cell-based; settings: for MIC: Bacillus cereus, read-out: Minimum Inhibitory Concentration (MIC) B. Cereus; for activity against B. Cereus (in words): MIC assay, up to 128 μg/mL
Procedure: as §1

Listeria innocua = assay: as above; format: cell-based; settings: for MIC: Listeria innocua, read-out: Minimum Inhibitory Concentration (MIC) Listeria Innocua; for activity against Listeria innocua (in words): MIC assay, up to 128 μg/mL
Procedure: as §1

[1] = Solubility in water / aqueous systems (statement); format: physicochemical; settings: aqueous formulations
[2] = prior art statement; cited from earlier work
[3] = incubation time 16 h, 10^6 cfu/mL, no visible growth
[4] = incubation time 30 h, 10^6 cfu/mL, no visible growth

Row | Compound | cells killed (human pathogen bacteria) | time to reach 3 log reduction (human pathogen bacteria) [hour] | MIC (B. Subtilis; [3]) [µg/mL] | MIC (B. Cereus; [3]) [µg/mL] | MIC (Listeria innocua; [4]) [µg/mL] | activity against B. Subtilis (in words) (B. Subtilis) | other results
1 | COC(=O)CCCCCCC/C=C\CCCCCCC(C)OC1OC(CO)C(O)C(O)C1OC1OC(CO)C(O)C(O)C1O (centres unmarked) [SL Methyl ester] | more than 99.9% | ≤ 1 |  |  |  |  | MIC (B. Subtilis; 16 h): 32 µg/mL (≈ 50.3 µM); MIC (B. Cereus; 16 h): 32 µg/mL (≈ 50.3 µM); MIC (Listeria innocua; 30 h): 64 µg/mL (≈ 101 µM)
2 | CCOC(=O)CCCCCCC/C=C\CCCCCCC(C)OC1OC(CO)C(O)C(O)C1OC1OC(CO)C(O)C(O)C1O (centres unmarked) [SL Ethyl ester] |  |  | 32 (≈ 49.2 µM) | 32 (≈ 49.2 µM) | 32 (≈ 49.2 µM) |  | 
3 | CCCCOC(=O)CCCCCCC/C=C\CCCCCCC(C)OC1OC(CO)C(O)C(O)C1OC1OC(CO)C(O)C(O)C1O (centres unmarked) [SL Butyl ester] | more than 99.9% | ≤ 1 | 8 (≈ 11.8 µM) | 8 (≈ 11.8 µM) | 8 (≈ 11.8 µM) |  | 
4 | SL Pentyl ester |  |  |  |  |  | no activity | Minimum Inhibitory Concentration (MIC) B. Subtilis (B. Subtilis; [3]): >128 µg/mL; Minimum Inhibitory Concentration (MIC) B. Subtilis (B. Subtilis; incubation time 16 h, 10^6 cfu/mL, no visible growth, listed as pentyl ester): > 128 µg/mL; Minimum Inhibitory Concentration (MIC) B. Cereus (B. Cereus; [3]): 8 µg/mL; Minimum Inhibitory Concentration (MIC) Listeria Innocua (Listeria innocua; [4]): 8 µg/mL
5 | SL Hexyl ester |  |  |  |  |  | no activity | Minimum Inhibitory Concentration (MIC) B. Subtilis (B. Subtilis; [3]): >128 µg/mL; activity against B. Cereus (in words) (B. Cereus): no activity; Minimum Inhibitory Concentration (MIC) B. Cereus (B. Cereus; [3]): >128 µg/mL; activity against Listeria innocua (in words) (Listeria innocua): no activity; Minimum Inhibitory Concentration (MIC) Listeria Innocua (Listeria innocua; [4]): >128 µg/mL
6 | CCCOC(=O)CCCCCCC/C=C\CCCCCCC(C)OC1OC(CO)C(O)C(O)C1OC1OC(CO)C(O)C(O)C1O (centres unmarked) [SL Propyl ester] | more than 99.9% | ≤ 1 | 25 (≈ 37.6 µM) | 16 (≈ 24.1 µM) | 25 (≈ 37.6 µM) |  | 
7 | CC(=O)OCC1OC2OC(C)CCCCCC/C=C\CCCCCCCC(=O)OC3C(COC(C)=O)OC(OC2C(O)C1O)C(O)C3O (centres unmarked) [Lactonic SL, LSL 6′,6″-diacetate, reference compound] |  | ~2 | 8 (≈ 11.6 µM) | 16 (≈ 23.2 µM) | 32 (≈ 46.5 µM) | active | water solubility (in words) [1]: low water solubility; solubility in aqueous systems (in words) [2]: very low solubility; activity against B. Cereus (in words) (B. Cereus): active; activity against Listeria innocua (in words) (Listeria innocua): active
